Laboratory results reported in patent EP0197829A1, “5H-pyrido[3',4':4,5]pyrrolo[3,2-c]pyridine derivatives, process for their preparation and their antitunour activity” (SANOFI, priority 1985, dated 1986).
Where two headings read alike, the source gives them in different places.

Experiments:
leucémie P 388 = type: in vivo, souris hybrides CDF1; details: for Survivants: at day J 40
Text: (§1) L'activité antitumorale a été testée in vivo sur différentes tumeurs selon le protocole général suivant : Toutes les souris mâles ou femelles sont inoculées par voie intrapéritonéale au jour Jo avec une quantité déterminée de cellules tumorales viables, variable selon la tumeur.
(§2) Elles sont ensuite réparties en différents lots. Chaque lot correspondant aux animaux traités par le produit à tester à une dose déterminée est composé de lO souris. Dans ce cas, le produit à tester est dissous dans l'eau distillée et il est administré, pendant n jours (J1-Jn) variables selon le protocole choisi, par voie intrapéritonéale à raison de 0,1 ml par lO g de poids des souris traitées, les doses du produit administré étant précisées dans les tableaux ci-dessous.
(§3) Le lot "Contrôle négatif", correspondant aux animaux qui ne sont pas traités par un produit, comprend 2 √N animaux, N étant égal au nombre total de souris traitées par un produit.
(§4) Enfin, tous lés essais sont conduits parallèlement à l'étude d'un lot appelé "Contrôle positif" de 10 animaux qui est traité par une molécule active, variable selon le protocole choisi, dans les mêmes conditions que les lots traités par le produit à tester, afin de valider l'essai.
(§5) L'activité antitumorale est évaluée en considérant l'augmentation du temps de survie des animaux traités par rapport à celui des animaux du lot "Contrôle négatif" selon la formule : • Jour médian de survie des animaux traités à une T/C = dose donnée de produit x 100 • Jour médian de survie des animaux "Contrôle négatif"
(§6) Un composé est considéré comme étant actif lorsque la valeur du rapport T/C est égale ou supérieure à 125 % selon le protocole retenu. Il est toxique lorsque cette valeur est égale ou inférieure à 85 %. Le produit est également considéré comme toxique lorsque la variation pondérale, exprimée en grammes et calculée par la formule : Poids moyen du lot mesuré au jour 5 - poids moyen du même lot au jour 1, est égale ou inférieure à -4g . a) Test de la leucémie P 388 (GERAN et al., Cancer Chemother, 1972, 2, 07-57).
Les essais sont effectués avec des souris hybrides CDF1 inoculées par voie intrapéritonéale avec […] leucémiques de la lignée P 388. Le composé à tester est administré pendant 5 jours (Jl-J5). Le contrôle positif du test est le 5-fluorouracile qui est administré dans les mêmes conditions.
[…] Un composé est considéré comme étant actif lorsque le rapport T/C est supérieur à 127 %.

réticulosarcome M5-M5076 = test: M5-M5076 reticulosarcoma test in vivo; design: species or system souris hybrides BDF1; details: for Survivants: at day J 75
Text: as §1, §2, §3, §4, §5, §6
d) Test du réticulosarcome M5-M5076.
Les essais sont effectués avec des souris hybrides BDF1 inoculées avec 10^6 cellules de la lignée M5-M5076. Le composé à tester est administré 5 fois successivement de façon séquentielle (Jl, 5, 9, 13, 17). Le contrôle positif du test est le cyclophosphamide administré dans les mêmes conditions. Le nombre d'animaux survivants est évalué au jour J 75. Un composé est considéré comme actif lorsque le rapport T/C est supérieur ou égal à 125 %.

leucémie L 1210 = test: L 1210 leukemia test in vivo; design: species or system souris hybrides CDF1; details: for Survivants: at day J 60
Text: as §1, §2, §3, §4, §5, §6
b) Test de la leucémie L 1210 (GERAN et al., Cancer Chemother, 1972, 2, 07-57).
Les essais sont effectués avec des souris hybrides CDF1 inoculées avec 10^5 cellules leucémiques de la lignée L 1210. Le composé à tester est administré pendant 5 jours (J1-J5). Le contrôle positif du test est le 5-fluorouracile administré dans les mêmes conditions. Le nombre d'animaux survivants est évalué au jour J 60. Un composé est considéré comme étant actif lorsque le rapport T/C est supérieur ou égal à 125 %.

[1] = 100 mg/kg i.p. J1, 5, 9, 13, 17
[2] = 150 mg/kg i.p. J1, 5, 9, 13, 17

Which “Jour médian de survie” value (leucémie P 388; 5 mg/kg i.p. J1-J5) does the source give for `Cc1cnc(NCCCN(C)C)c2c1[nH]c1ccncc12` [Dérivé N° 3, [(diméthylamino-3 propyl-1)amino]-1 méthyl-4 5-H pyrido[3',4':4,5]pyrrolo[3,2-c]pyridine] here?
Its value is 16,25.

And the T/C % (leucémie P 388; 5 mg/kg i.p. J1-J5)?
The T/C % was 147%.

And the Survivants (leucémie P 388; 5 mg/kg i.p. J1-J5)?
Its Survivants is 0.

What about the “Jour médian de survie” value (leucémie P 388; 10 mg/kg i.p. J1-J5) of the same molecule?
Its value is 17,75.

And the T/C % (leucémie P 388; 10 mg/kg i.p. J1-J5)?
The T/C % was 161%.

And the Survivants (leucémie P 388; 10 mg/kg i.p. J1-J5)?
Its Survivants is 0.

And the “Jour médian de survie” value (leucémie P 388; 20 mg/kg i.p. J1-J5)?
Its value is 20,0.

And the T/C % (leucémie P 388; 20 mg/kg i.p. J1-J5)?
Its T/C % is 181%.

And the Survivants (leucémie P 388; 20 mg/kg i.p. J1-J5)?
Its Survivants is 0.

What about the “Jour médian de survie” value (leucémie P 388; 40 mg/kg i.p. J1-J5) of the same molecule?
Its value is 19,3.

What about the T/C % (leucémie P 388; 40 mg/kg i.p. J1-J5) of the same molecule?
Its T/C % is 175%.

And the Survivants (leucémie P 388; 40 mg/kg i.p. J1-J5)?
Its Survivants is 1.

And the “Jour médian de survie” value (leucémie P 388; 80 mg/kg i.p. J1-J5)?
Its value is 7,3.

And the T/C % (leucémie P 388; 80 mg/kg i.p. J1-J5)?
Its T/C % is 66%.

And the Survivants (leucémie P 388; 80 mg/kg i.p. J1-J5)?
The Survivants was 0.

What about the “Jour médian de survie” value (leucémie P 388; 0,625 mg/kg i.p. J1-J5) of the same molecule?
Its value is 13,1.

And the T/C % (leucémie P 388; 0,625 mg/kg i.p. J1-J5)?
The T/C % was 119%.

And the Survivants (leucémie P 388; 0,625 mg/kg i.p. J1-J5)?
The Survivants was 0.

What about the “Jour médian de survie” value (leucémie P 388; 1,25 mg/kg i.p. J1-J5) of the same molecule?
The value was 14,1.

What about the T/C % (leucémie P 388; 1,25 mg/kg i.p. J1-J5) of the same molecule?
The T/C % was 128%.

What about the Survivants (leucémie P 388; 1,25 mg/kg i.p. J1-J5) of the same molecule?
Its Survivants is 0.

What about the “Jour médian de survie” value (leucémie P 388; 2,5 mg/kg i.p. J1-J5) of the same molecule?
The value was 15,0.

And the T/C % (leucémie P 388; 2,5 mg/kg i.p. J1-J5)?
The T/C % was 136%.

What about the Survivants (leucémie P 388; 2,5 mg/kg i.p. J1-J5) of the same molecule?
The Survivants was 0.

And the “Jour médian de survie” value (réticulosarcome M5-M5076; 25 mg/kg i.p. J1, 5, 9, 13, 17)?
The value was 51,0.

What about the T/C % (réticulosarcome M5-M5076; 25 mg/kg i.p. J1, 5, 9, 13, 17) of the same molecule?
Its T/C % is 195%.

What about the Survivants (réticulosarcome M5-M5076; 25 mg/kg i.p. J1, 5, 9, 13, 17) of the same molecule?
The Survivants was 1.

What about the “Jour médian de survie” value (réticulosarcome M5-M5076; 50 mg/kg i.p. J1, 5, 9, 13, 17) of the same molecule?
The value was 45,0.

What about the T/C % (réticulosarcome M5-M5076; 50 mg/kg i.p. J1, 5, 9, 13, 17) of the same molecule?
Its T/C % is 172%.

And the Survivants (réticulosarcome M5-M5076; 50 mg/kg i.p. J1, 5, 9, 13, 17)?
Its Survivants is 0.

And the “Jour médian de survie” value (réticulosarcome M5-M5076; 75 mg/kg i.p. J1, 5, 9, 13, 17)?
Its value is 41,7.

And the T/C % (réticulosarcome M5-M5076; 75 mg/kg i.p. J1, 5, 9, 13, 17)?
Its T/C % is 159%.

What about the Survivants (réticulosarcome M5-M5076; 75 mg/kg i.p. J1, 5, 9, 13, 17) of the same molecule?
Its Survivants is 0.

What about the “Jour médian de survie” value (réticulosarcome M5-M5076; [1]) of the same molecule?
The value was 44,7.

And the T/C % (réticulosarcome M5-M5076; [1])?
The T/C % was 171%.

What about the Survivants (réticulosarcome M5-M5076; [1]) of the same molecule?
Its Survivants is 0.

What about the “Jour médian de survie” value (réticulosarcome M5-M5076; [2]) of the same molecule?
The value was 10,0.

What about the T/C % (réticulosarcome M5-M5076; [2]) of the same molecule?
The T/C % was 38%.

What about the Survivants (réticulosarcome M5-M5076; [2]) of the same molecule?
The Survivants was 0.

What about the “Jour médian de survie” value (leucémie L 1210; 5 mg/kg i.p. J1-J5) of the same molecule?
The value was 14,0.

What about the T/C % (leucémie L 1210; 5 mg/kg i.p. J1-J5) of the same molecule?
Its T/C % is 152%.

And the Survivants (leucémie L 1210; 5 mg/kg i.p. J1-J5)?
The Survivants was 0.

What about the “Jour médian de survie” value (leucémie L 1210; 10 mg/kg i.p. J1-J5) of the same molecule?
The value was 16,25.

What about the T/C % (leucémie L 1210; 10 mg/kg i.p. J1-J5) of the same molecule?
The T/C % was 177%.

And the Survivants (leucémie L 1210; 10 mg/kg i.p. J1-J5)?
Its Survivants is 0.

What about the “Jour médian de survie” value (leucémie L 1210; 20 mg/kg i.p. J1-J5) of the same molecule?
Its value is 15,6.

And the T/C % (leucémie L 1210; 20 mg/kg i.p. J1-J5)?
The T/C % was 170%.

And the Survivants (leucémie L 1210; 20 mg/kg i.p. J1-J5)?
The Survivants was 0.

And the “Jour médian de survie” value (leucémie L 1210; 40 mg/kg i.p. J1-J5)?
Its value is 9,25.

What about the T/C % (leucémie L 1210; 40 mg/kg i.p. J1-J5) of the same molecule?
The T/C % was 100%.

And the Survivants (leucémie L 1210; 40 mg/kg i.p. J1-J5)?
The Survivants was 0.

And the “Jour médian de survie” value (leucémie L 1210; 50 mg/kg i.p. J1-J5)?
Its value is 8,2.

What about the T/C % (leucémie L 1210; 50 mg/kg i.p. J1-J5) of the same molecule?
Its T/C % is 89%.

And the Survivants (leucémie L 1210; 50 mg/kg i.p. J1-J5)?
The Survivants was 0.

What about the “Jour médian de survie” value (leucémie L 1210; 1,25 mg/kg i.p. J1-J5) of the same molecule?
Its value is 11,75.

And the T/C % (leucémie L 1210; 1,25 mg/kg i.p. J1-J5)?
Its T/C % is 128%.

What about the Survivants (leucémie L 1210; 1,25 mg/kg i.p. J1-J5) of the same molecule?
The Survivants was 0.

And the “Jour médian de survie” value (leucémie L 1210; 2,5 mg/kg i.p. J1-J5)?
Its value is 12,90.

What about the T/C % (leucémie L 1210; 2,5 mg/kg i.p. J1-J5) of the same molecule?
Its T/C % is 140%.

What about the Survivants (leucémie L 1210; 2,5 mg/kg i.p. J1-J5) of the same molecule?
The Survivants was 0.
